In PubChem BioAssay AID1918999 (Molecular Pharmacology Branch, DTP, NCI, 2023):
pIC50: −log10 of the molar value.

Tested on: 556581-035-R-J1-PDC complex spheroid growth
Assay: Anticancer human tumor 556581-035-R-J1-PDC patient-derived ovarian carcinoma cell line growth inhibition [AhR]
Settings: for pIC50: curve of first compound; for viability, T/C: stronger effect = lower value
Method in brief: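 Agents were dosed in half-log steps down from roughly clinical Cmax, or from 10 microM where Cmax was unknown, alone and with AhR antagonists. Read-out: percent test/control growth of tumor spheroids containing HUVEC and MSC stromal cells.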

[1] = second compound 0.1 µM, first compound 0.0316 µM
[2] = second compound 0.1 µM, first compound 0.1 µM
[3] = second compound 0.1 µM, first compound 0.316 µM
[4] = second compound 0.1 µM, first compound 1 µM
[5] = second compound 0.1 µM, first compound 3.16 µM
[6] = second compound 0.1 µM, first compound 10 µM
[7] = second compound 0.316 µM, first compound 0.0316 µM
[8] = second compound 0.316 µM, first compound 0.1 µM
[9] = second compound 0.316 µM, first compound 0.316 µM
[10] = second compound 0.316 µM, first compound 1 µM
[11] = second compound 0.316 µM, first compound 3.16 µM
[12] = second compound 0.316 µM, first compound 10 µM
[13] = second compound 1 µM, first compound 0.0316 µM
[14] = second compound 1 µM, first compound 0.1 µM
[15] = second compound 1 µM, first compound 0.316 µM
[16] = second compound 1 µM, first compound 1 µM
[17] = second compound 1 µM, first compound 3.16 µM
[18] = second compound 1 µM, first compound 10 µM
[19] = second compound 3.16 µM, first compound 0.0316 µM
[20] = second compound 3.16 µM, first compound 0.1 µM
[21] = second compound 3.16 µM, first compound 0.316 µM
[22] = second compound 3.16 µM, first compound 1 µM
[23] = second compound 3.16 µM, first compound 3.16 µM
[24] = second compound 3.16 µM, first compound 10 µM
[25] = second compound 10 µM, first compound 0.0316 µM
[26] = second compound 10 µM, first compound 0.1 µM
[27] = second compound 10 µM, first compound 0.316 µM
[28] = second compound 10 µM, first compound 1 µM
[29] = second compound 10 µM, first compound 3.16 µM
[30] = second compound 10 µM, first compound 10 µM
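Throughout, for viability, T/C: compound exposure lasted 7 days; 100% = DMSO vehicle control growth.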

COc1cc(C2c3cc4c(cc3C(OC3OC5COC(C)OC5C(O)C3O)C3COC(=O)C23)OCO4)cc(OC)c1O (stereo not given) + Cc1cncc(-c2nc(NCCc3c[nH]c4ccccc34)c3ncn(C(C)C)c3n2)c1
pIC50 (second compound 0.1 µM): 5.08 | pIC50 (second compound 0.316 µM): 5.23 | pIC50 (second compound 1 µM): 5.23 | pIC50 (second compound 3.16 µM): 5.15 | pIC50 (second compound 10 µM): < 5.00 | viability, T/C [1]: 97.9% | viability, T/C [2]: 97.9% | viability, T/C [3]: 87.4% | viability, T/C [4]: 72.4% | viability, T/C [5]: 62.2% | viability, T/C [6]: 47.4% | viability, T/C [7]: 94% | viability, T/C [8]: 107% | viability, T/C [9]: 88.8% | viability, T/C [10]: 75.9% | viability, T/C [11]: 65.3% | viability, T/C [12]: 39% | viability, T/C [13]: 95.6% | viability, T/C [14]: 103% | viability, T/C [15]: 92.8% | viability, T/C [16]: 78.8% | viability, T/C [17]: 59% | viability, T/C [18]: 42.9% | viability, T/C [19]: 96.7% | viability, T/C [20]: 92.5% | viability, T/C [21]: 89.2% | viability, T/C [22]: 72.4% | viability, T/C [23]: 64.7% | viability, T/C [24]: 43.7% | viability, T/C [25]: 83.7% | viability, T/C [26]: 76.8% | viability, T/C [27]: 78.2% | viability, T/C [28]: 73.8% | viability, T/C [29]: 62.9% | viability, T/C [30]: 50.6%

Nc1ccn(C2OC(CO)C(O)C2(F)F)c(=O)n1 (stereo not given) + Cc1cncc(-c2nc(NCCc3c[nH]c4ccccc34)c3ncn(C(C)C)c3n2)c1
pIC50 (second compound 0.1 µM): > 7.50 | pIC50 (second compound 0.316 µM): > 7.50 | pIC50 (second compound 1 µM): > 7.50 | pIC50 (second compound 3.16 µM): > 7.50 | pIC50 (second compound 10 µM): 5.22 | viability, T/C [1]: 32.8% | viability, T/C [2]: 34.5% | viability, T/C [3]: 35.8% | viability, T/C [4]: 32.9% | viability, T/C [5]: 34.1% | viability, T/C [6]: 28.2% | viability, T/C [7]: 34.5% | viability, T/C [8]: 34.9% | viability, T/C [9]: 37% | viability, T/C [10]: 37.6% | viability, T/C [11]: 29.2% | viability, T/C [12]: 32.7% | viability, T/C [13]: 31.8% | viability, T/C [14]: 36.1% | viability, T/C [15]: 36% | viability, T/C [16]: 36.5% | viability, T/C [17]: 32.7% | viability, T/C [18]: 28.6% | viability, T/C [19]: 43.3% | viability, T/C [20]: 45.4% | viability, T/C [21]: 44.3% | viability, T/C [22]: 45.9% | viability, T/C [23]: 38.2% | viability, T/C [24]: 33% | viability, T/C [25]: 55.7% | viability, T/C [26]: 64.2% | viability, T/C [27]: 57% | viability, T/C [28]: 62.7% | viability, T/C [29]: 48.1% | viability, T/C [30]: 48.6%

Nc1ncn(C2CC(O)C(CO)O2)c(=O)n1 (stereo not given) + Cc1cncc(-c2nc(NCCc3c[nH]c4ccccc34)c3ncn(C(C)C)c3n2)c1
pIC50 (second compound 0.1 µM): < 6.00 | pIC50 (second compound 0.316 µM): < 6.00 | pIC50 (second compound 1 µM): < 6.00 | pIC50 (second compound 3.16 µM): < 6.00 | pIC50 (second compound 10 µM): < 6.00 | viability, T/C (second compound 0.1 µM, first compound 0.00316 µM): 97.2% | viability, T/C (second compound 0.1 µM, first compound 0.01 µM): 95.1% | viability, T/C [1]: 106% | viability, T/C [2]: 89% | viability, T/C [3]: 84.8% | viability, T/C [4]: 77.4% | viability, T/C (second compound 0.316 µM, first compound 0.00316 µM): 102% | viability, T/C (second compound 0.316 µM, first compound 0.01 µM): 93.6% | viability, T/C [7]: 90.7% | viability, T/C [8]: 87% | viability, T/C [9]: 93.1% | viability, T/C [10]: 85.6% | viability, T/C (second compound 1 µM, first compound 0.00316 µM): 91.4% | viability, T/C (second compound 1 µM, first compound 0.01 µM): 105% | viability, T/C [13]: 104% | viability, T/C [14]: 110% | viability, T/C [15]: 92.6% | viability, T/C [16]: 82.2% | viability, T/C (second compound 3.16 µM, first compound 0.00316 µM): 98.2% | viability, T/C (second compound 3.16 µM, first compound 0.01 µM): 95.5% | viability, T/C [19]: 93.6% | viability, T/C [20]: 94.7% | viability, T/C [21]: 88.3% | viability, T/C [22]: 90.2% | viability, T/C (second compound 10 µM, first compound 0.00316 µM): 83.7% | viability, T/C (second compound 10 µM, first compound 0.01 µM): 78.5% | viability, T/C [25]: 81.6% | viability, T/C [26]: 82% | viability, T/C [27]: 81.8% | viability, T/C [28]: 83.6%
